Results from ChEMBL document CHEMBL6134780, “Halogenated retinoid derivatives as dual RARα and RXRα modulators for treating acute promyelocytic leukemia cells” (Eur J Med Chem, 2024).
Calls of active or inactive are those of the source. The calls are words filed in the database; no cut-off is given here.

Experiments:
NB-4 [1] = assay: Induction of apoptosis in human NB4 cells assessed as viable cells at 10 uM incubated for 24 hrs by Annexin V-FITC/PI staining based flow cytometric analysis (reference value: 92.36 %); assay type: functional; conditions: read-out: Activity
NB-4 [2] = assay: Induction of apoptosis in human NB4 cells assessed as early apoptotic cells at 10 uM incubated for 24 hrs by Annexin V-FITC/PI staining based flow cytometric analysis (reference value: 4.37 %); assay type: functional
NB-4 [3] = assay: Induction of apoptosis in human NB4 cells assessed as late apoptotic cells at 10 uM incubated for 24 hrs by Annexin V-FITC/PI staining based flow cytometric analysis (reference value: 3.20 %); assay type: functional
NB-4 [4] = assay: Induction of apoptosis in human NB4 cells assessed as necrotic cells at 10 uM incubated for 24 hrs by Annexin V-FITC/PI staining based flow cytometric analysis (reference value: 0.07 %); assay type: functional
[5] = Induction of apoptosis in human ATRA-resistant NB4-LR2 cells assessed as viable cells at 10 uM incubated for 24 hrs by Annexin V-FITC/PI staining based flow cytometric analysis (reference value: 87.30 %); assay type: functional; conditions: read-out: Activity
[6] = Induction of apoptosis in human ATRA-resistant NB4-LR2 cells assessed as early apoptotic cells at 10 uM incubated for 24 hrs by Annexin V-FITC/PI staining based flow cytometric analysis (reference value: 5.38 %); assay type: functional
[7] = Induction of apoptosis in human ATRA-resistant NB4-LR2 cells assessed as late apoptotic cells at 10 uM incubated for 24 hrs by Annexin V-FITC/PI staining based flow cytometric analysis (reference value: 7.23 %); assay type: functional
[8] = Induction of apoptosis in human ATRA-resistant NB4-LR2 cells assessed as necrotic cells at 10 uM incubated for 24 hrs by Annexin V-FITC/PI staining based flow cytometric analysis (reference value: 0.08 %); assay type: functional
ATRA-resistant NB4-LR2 [9] = assay: Cell cycle arrest in human ATRA-resistant NB4-LR2 cells transfected with pLVX-shRXRalpha assessed as increase in PLK1 expression at 8 uM incubated for 12 hrs by Western blot analysis; assay type: functional, cell-based
ATRA-resistant NB4-LR2 [10] = assay: Cell cycle arrest in human ATRA-resistant NB4-LR2 cells transfected with pLVX-shRXRalpha assessed as increase in cyclin B1 expression at 8 uM incubated for 12 hrs by Western blot analysis; assay type: functional, cell-based
ATRA-resistant NB4-LR2 [11] = assay: Induction of apoptosis in human ATRA-resistant NB4-LR2 cells transfected with pLVX-shRXRalpha assessed as increase in cleaved PARP expression at 8 uM incubated for 12 hrs by Western blot analysis; assay type: functional, cell-based
[12] = molecular target: Retinoic acid receptor RXR-alpha (Homo sapiens, UniProt P19793); assay: Binding affinity to N-terminal His-tagged human RXRalpha LBD extracted from Escherichia coli BL21 (DE3) cells assessed as dissociation constant by fluorescence quenching assay
Chain of Retinoic acid receptor RXR-alpha (P19793 whole entry, the tested form may be a part): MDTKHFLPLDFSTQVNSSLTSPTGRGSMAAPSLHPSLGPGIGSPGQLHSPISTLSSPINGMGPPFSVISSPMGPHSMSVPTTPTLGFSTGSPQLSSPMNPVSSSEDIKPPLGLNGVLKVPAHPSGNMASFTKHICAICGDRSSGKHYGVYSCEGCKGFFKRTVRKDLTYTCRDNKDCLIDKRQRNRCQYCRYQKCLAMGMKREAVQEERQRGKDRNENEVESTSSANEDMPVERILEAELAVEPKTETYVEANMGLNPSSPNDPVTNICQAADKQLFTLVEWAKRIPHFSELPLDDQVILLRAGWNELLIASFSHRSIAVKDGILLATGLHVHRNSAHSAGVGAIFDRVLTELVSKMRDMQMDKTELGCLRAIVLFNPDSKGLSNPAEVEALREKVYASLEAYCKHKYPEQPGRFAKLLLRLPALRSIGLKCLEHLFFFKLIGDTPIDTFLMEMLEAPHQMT

NB-4 [13] = assay: Induction of apoptosis in human NB4 cells assessed as viable cells at 5 uM incubated for 24 hrs by Annexin V-FITC/PI staining based flow cytometric analysis (reference value: 92.36 %); assay type: functional; conditions: read-out: Activity
NB-4 [14] = assay: Induction of apoptosis in human NB4 cells assessed as early apoptotic cells at 5 uM incubated for 24 hrs by Annexin V-FITC/PI staining based flow cytometric analysis (reference value: 4.37 %); assay type: functional
NB-4 [15] = assay: Induction of apoptosis in human NB4 cells assessed as late apoptotic cells at 5 uM incubated for 24 hrs by Annexin V-FITC/PI staining based flow cytometric analysis (reference value: 3.20 %); assay type: functional
NB-4 [16] = assay: Induction of apoptosis in human NB4 cells assessed as necrotic cells at 5 uM incubated for 24 hrs by Annexin V-FITC/PI staining based flow cytometric analysis (reference value: 0.07 %); assay type: functional
[17] = Induction of apoptosis in human ATRA-resistant NB4-LR2 cells assessed as viable cells at 5 uM incubated for 24 hrs by Annexin V-FITC/PI staining based flow cytometric analysis (reference value: 87.30 %); assay type: functional; conditions: read-out: Activity
[18] = Induction of apoptosis in human ATRA-resistant NB4-LR2 cells assessed as early apoptotic cells at 5 uM incubated for 24 hrs by Annexin V-FITC/PI staining based flow cytometric analysis (reference value: 5.38 %); assay type: functional
[19] = Induction of apoptosis in human ATRA-resistant NB4-LR2 cells assessed as late apoptotic cells at 5 uM incubated for 24 hrs by Annexin V-FITC/PI staining based flow cytometric analysis (reference value: 7.23 %); assay type: functional
[20] = Induction of apoptosis in human ATRA-resistant NB4-LR2 cells assessed as necrotic cells at 5 uM incubated for 24 hrs by Annexin V-FITC/PI staining based flow cytometric analysis (reference value: 0.08 %); assay type: functional
NB-4 [21] = assay: Induction of cell differentiation in human NB4 cells assessed as NBT positive cells at 0.5 uM incubated for 6 days by Nitro Blue tetrazolium chloride based microscopic analysis (reference value: 0 %); assay type: functional; conditions: time 6 day
NB-4 [22] = assay: Antiproliferative activity against human NB4 cells assessed as inhibition of cell viability incubated for 3 days by CCK8 assay; assay type: functional, cell-based; conditions: dose <= 3.5 µM, time 3.0 day
[23] = molecular target: T1, Retinoic acid receptor alpha (Homo sapiens) (UniProt P10276); assay: Agonist activity at full length RARalpha LBD (unknown origin) transfected in HEK293T cells co-transfected with pG5luc reporter and Renilla-luc assessed as transactivation at 0.5 to 1 uM incubated for 12 hrs by luciferase reporter gene assay; assay type: cell-based; conditions: filed as agonist, dose 0.5-1 µM
T1 sequence (whole entry): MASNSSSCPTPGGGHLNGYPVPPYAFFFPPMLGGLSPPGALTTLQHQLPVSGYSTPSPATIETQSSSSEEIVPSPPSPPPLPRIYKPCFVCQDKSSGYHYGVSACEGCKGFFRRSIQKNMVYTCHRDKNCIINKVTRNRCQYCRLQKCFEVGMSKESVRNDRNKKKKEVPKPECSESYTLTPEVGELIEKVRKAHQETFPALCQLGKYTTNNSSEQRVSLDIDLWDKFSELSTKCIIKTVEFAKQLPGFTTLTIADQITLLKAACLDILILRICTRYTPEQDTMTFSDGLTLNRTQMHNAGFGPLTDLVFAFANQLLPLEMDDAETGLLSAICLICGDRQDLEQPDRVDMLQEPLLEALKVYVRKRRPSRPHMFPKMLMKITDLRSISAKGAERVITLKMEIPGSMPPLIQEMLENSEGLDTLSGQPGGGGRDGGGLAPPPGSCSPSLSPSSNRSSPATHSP

NB-4 [24] = assay: Induction of apoptosis in human NB4 cells assessed as early apoptotic cells at 1 uM incubated for 24 hrs by Annexin V-FITC/PI staining based flow cytometric analysis (reference value: 1.77 %); assay type: functional
NB-4 [25] = assay: Induction of apoptosis in human NB4 cells assessed as late apoptotic cells at 1 uM incubated for 24 hrs by Annexin V-FITC/PI staining based flow cytometric analysis (reference value: 2.23 %); assay type: functional
[26] = Induction of apoptosis in human ATRA-resistant NB4-LR2 cells assessed as early apoptotic cells at 1 uM incubated for 24 hrs by Annexin V-FITC/PI staining based flow cytometric analysis (reference value: 1.41 %); assay type: functional
[27] = Induction of apoptosis in human ATRA-resistant NB4-LR2 cells assessed as late apoptotic cells at 1 uM incubated for 24 hrs by Annexin V-FITC/PI staining based flow cytometric analysis (reference value: 5.62 %); assay type: functional
NB-4 [28] = assay: Cell cycle arrest in human NB4 cells assessed as accumulation of cells at G0/G1 phase at 1 uM incubated for 12 hrs by DAPI staining based flow cytometric analysis (reference value: 51 %); assay type: functional
NB-4 [29] = assay: Cell cycle arrest in human NB4 cells assessed as accumulation of cells at S phase at 1 uM incubated for 12 hrs by DAPI staining based flow cytometric analysis (reference value: 20 %); assay type: functional
NB-4 [30] = assay: Cell cycle arrest in human NB4 cells assessed as accumulation of cells at G2/M phase at 1 uM incubated for 12 hrs by DAPI staining based flow cytometric analysis (reference value: 26 %); assay type: functional
NB-4 [31] = assay: Cell cycle arrest in human NB4 cells assessed as accumulation of cells at sub-G1 phase at 1 uM incubated for 12 hrs by DAPI staining based flow cytometric analysis (reference value: 2 %); assay type: functional
[32] = Cell cycle arrest in human ATRA-resistant NB4-LR2 cells assessed as accumulation of cells at G0/G1 phase at 1 uM incubated for 12 hrs by DAPI staining based flow cytometric analysis (reference value: 42 %); assay type: functional
[33] = Cell cycle arrest in human ATRA-resistant NB4-LR2 cells assessed as accumulation of cells at S phase at 1 uM incubated for 12 hrs by DAPI staining based flow cytometric analysis (reference value: 12 %); assay type: functional
[34] = Cell cycle arrest in human ATRA-resistant NB4-LR2 cells assessed as accumulation of cells at G2/M phase at 1 uM incubated for 12 hrs by DAPI staining based flow cytometric analysis (reference value: 28 %); assay type: functional
[35] = Cell cycle arrest in human ATRA-resistant NB4-LR2 cells assessed as accumulation of cells at sub-G1 phase at 1 uM incubated for 12 hrs by DAPI staining based flow cytometric analysis (reference value: 18 %); assay type: functional
NB-4 [36] = assay: Antiproliferative activity against human NB4 cells assessed as inhibition of cell viability at 0.125 uM incubated for 3 days by CCK8 assay relative to control; assay type: functional; conditions: NB-4, 72 h, time 3 day
NB-4 [37] = assay: Antiproliferative activity against human NB4 cells assessed as inhibition of cell viability up to 2 uM incubated for 3 days by CCK8 assay relative to control; assay type: functional; conditions: time 3 day

With `COc1ccc(CC(=O)N/N=C/c2c(O)ccc3ccccc23)cc1` as the compound, how does the viability at 10 µM (NB-4 [1]) read?
Its viability at 10 µM is 60.7%.

And the Activity (NB-4 [2])?
Its Activity is 20.4%.

What about the Activity (NB-4 [3]) of the same compound?
The Activity was 18.15%.

What about the Activity (NB-4 [4]) of the same compound?
Its Activity is 1.78%.

And the viability at 10 µM [5]?
The viability at 10 µM was 63.5%.

What about the Activity [6] of the same compound?
Its Activity is 17.31%.

And the Activity [7]?
The Activity was 18.38%.

And the Activity [8]?
The Activity was 0.77%.

What about the Activity (ATRA-resistant NB4-LR2 [9]) of the same compound?
Its Activity is “inactive”.

And the Activity (ATRA-resistant NB4-LR2 [10])?
Its Activity is “inactive”.

What about the Activity (ATRA-resistant NB4-LR2 [11]) of the same compound?
The Activity was “inactive”.

Which Kd [12] does the source give for `Cc1cc2c(cc1-c1cc(/C=C/C(=O)O)ccc1O)C(C)(C)CCC2(C)C` here?
Its Kd is 0.549 µM.

For `O=[N+]([O-])/C=C/c1cccc2ccccc12`, which viability at 5 µM (NB-4 [13]) is on record?
The viability at 5 µM was 78.6%.

What about the Activity (NB-4 [14]) of the same compound?
The Activity was 9.62%.

And the Activity (NB-4 [15])?
The Activity was 11.26%.

What about the Activity (NB-4 [16]) of the same compound?
The Activity was 0.48%.

And the viability at 5 µM [17]?
The viability at 5 µM was 42.3%.

What about the Activity [18] of the same compound?
The Activity was 28.83%.

And the Activity [19]?
The Activity was 28.61%.

And the Activity [20]?
Its Activity is 0.29%.

For `Cc1cc2c(cc1C(=O)/C(Cl)=C/c1ccc(C(=O)O)cc1)C(C)(C)CCC2(C)C`, which Activity (NB-4 [21]) is on record?
The Activity was 15%.

What about the Activity (NB-4 [22]) of the same compound?
The Activity was “Dose-dependent-effect”.

And the Activity [23]?
The Activity was “Active; Highly Raralpha Selective Agonistic Activity Observed”.

What about the Activity (NB-4 [24]) of the same compound?
Its Activity is 27.43%.

And the Activity (NB-4 [25])?
The Activity was 21.24%.

And the Activity [26]?
The Activity was 24.72%.

And the Activity [27]?
The Activity was 17.39%.

And the Activity (NB-4 [28])?
Its Activity is 43%.

And the Activity (NB-4 [29])?
The Activity was 12%.

What about the Activity (NB-4 [30]) of the same compound?
The Activity was 41%.

What about the Activity (NB-4 [31]) of the same compound?
The Activity was 4%.

And the Activity [32]?
The Activity was 7%.

What about the Activity [33] of the same compound?
The Activity was 8%.

What about the Activity [34] of the same compound?
The Activity was 66%.

And the Activity [35]?
Its Activity is 19%.

What about the inhibition at 0.125 µM (NB-4 [36]) of the same compound?
The inhibition at 0.125 µM was about 10%.

And the “inhibition (INH)” value (NB-4 [37])?
The value was 100%.
